Measured values taken from PubChem BioAssay (NCI).
Several values for one entry are separate records, joined by “and”; a condition that tells them apart may be missing. Equal entries are not always repeated.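 How tested: cells in 96-well plates exposed to compound for 48 hours at five concentrations. GI50 = concentration required for 50% inhibition of growth. TGI: concentration producing complete growth inhibition.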 Where a SMILES comes first, the peptide text is derived from it. The star is where a group is joined. Boc = CC(C)(C)OC(=O)*

Legend:
Assay in all cases: NCI-60 cell line screen, 48 h
BT-549 breast = tested on: BT-549 breast
HCC-2998 colon = tested on: HCC-2998 colon
IGROV1 ovarian = tested on: IGROV1 ovarian
M14 melanoma = tested on: M14 melanoma
MDA-N = tested on: MDA-N
MOLT-4 leukemia = tested on: MOLT-4 leukemia
SF-268 CNS = tested on: SF-268 CNS
SF-539 CNS = tested on: SF-539 CNS
SNB-75 CNS = tested on: SNB-75 CNS
U251 CNS = tested on: U251 CNS
RXF 393 renal = tested on: RXF 393 renal

Compound | TGI (BT-549 breast) | TGI (HCC-2998 colon) | TGI (IGROV1 ovarian) | TGI (M14 melanoma) | TGI (MDA-N) | TGI (MOLT-4 leukemia) | TGI (SF-268 CNS) | TGI (SF-539 CNS) | TGI (SNB-75 CNS) | TGI (U251 CNS) | TGI (RXF 393 renal) | GI50 (HCC-2998 colon) | GI50 (IGROV1 ovarian) | GI50 (M14 melanoma) | GI50 (MOLT-4 leukemia) | GI50 (RXF 393 renal) | GI50 (SF-268 CNS) | GI50 (SF-539 CNS) | GI50 (SNB-75 CNS) | GI50 (U251 CNS)
Cc1cnc2sn(-c3ccc(Oc4ccccc4)cc3)c(=O)c2c1 | 42.2 µM | 22.8 µM | 45.5 µM | 30.8 µM | 51.1 µM | > 100 µM | 38.2 µM | 31.7 µM | 34.5 µM | 46 µM |  |  |  |  |  |  |  |  |  | 
COC(=O)C(Cc1c[nH]c2ccccc12)NC(=O)C(Cc1c[nH]c2ccccc12)NC(=O)C(Cc1c[nH]c2ccccc12)NC(=O)C(Cc1c[nH]c2ccccc12)NC(=O)C(Cc1c[nH]c2ccccc12)NC(=O)C(Cc1c[nH]c2ccccc12)NC(=O)OC(C)(C)C (stereo unspecified) (Boc-WWWWWW-OMe; configuration not given here) | > 100 µM | > 100 µM | > 100 µM |  | > 100 µM | > 100 µM | > 100 µM |  | > 100 µM | > 100 µM |  |  |  |  |  |  |  |  |  | 
O=C1CCC2(CC1CC(Sc1ccccc1)Sc1ccccc1)OCCO2 (stereo unspecified) |  | > 100 µM | > 100 µM | > 100 µM | > 100 µM | 66.3 µM | > 100 µM | > 100 µM | > 100 µM | > 100 µM | > 100 µM |  |  |  |  |  |  |  |  | 
O=C(NCCC1([N+](=O)[O-])CCN(C(=O)c2ccccc2)CC1)c1ccccc1 | > 100 µM |  | > 100 µM | > 100 µM | > 100 µM | > 100 µM | > 100 µM | > 100 µM |  |  | > 100 µM |  |  |  |  |  |  |  |  | 
BrCCCCCOc1ccc(-c2c3ccccc3c(-c3ccc(OCCCCCBr)cc3)c3ccccc23)cc1 |  | > 100 µM | > 100 µM | > 100 µM | > 100 µM | > 100 µM | > 100 µM | > 100 µM | > 100 µM | > 100 µM | > 100 µM |  |  |  |  |  |  |  |  | 
CCOC(=O)c1cc(-c2cc(OC)c(OC)c([N+](=O)[O-])c2)c([N+](=O)[O-])n1C | > 10 µM | > 10 µM | > 10 µM | > 10 µM |  | > 10 µM | > 10 µM | > 10 µM | > 10 µM | > 10 µM | > 10 µM |  |  |  |  |  |  |  |  | 
O=S(=O)(c1ccccc1)n1c2ccc(Br)cc2c2nc3ccccc3nc21 |  | > 100 µM | > 100 µM | > 100 µM | > 100 µM | > 100 µM | > 100 µM |  | > 100 µM | > 100 µM | > 100 µM |  |  |  |  |  |  |  |  | 
O=C(O)c1cc2ccccc2c(N=Nc2ccc(S(=O)(=O)Nc3nccs3)cc2)c1O |  | > 100 µM | > 100 µM | > 100 µM | > 100 µM | > 100 µM | > 100 µM | > 100 µM | > 100 µM | > 100 µM | > 100 µM |  |  |  |  |  |  |  |  | 
O=S(=O)(CCBr)CCBr |  | 18.1 µM | 18.8 µM |  |  | 7.75 µM | 16.1 µM | 18.6 µM | 25.5 µM | 29.2 µM | 5.88 µM |  |  |  |  |  |  |  |  | 
CC(=O)N=C1N(/C=C2\C(=O)Oc3ccccc3C2=O)C(=O)/C(=C/c2ccc(OC(C)=O)cc2)N1C |  | > 100 µM | > 100 µM | > 100 µM | > 100 µM | > 100 µM | > 100 µM | > 100 µM | > 100 µM | > 100 µM | > 100 µM |  |  |  |  |  |  |  |  | 
NC(CCCC(N)P(=O)(O)c1ccccc1)P(=O)(O)c1ccccc1 (stereo unspecified) |  | > 261 µM | > 261 µM | > 261 µM |  | > 261 µM | > 261 µM | > 261 µM | > 261 µM | > 261 µM | > 261 µM |  |  |  |  |  |  |  |  | 
COc1cc(C2c3cc4c(cc3[C@@H](Nc3ccccc3)C3COC[C@H]23)OCO4)cc(OC)c1O (stereo partly specified) |  | > 100 µM | > 100 µM | > 100 µM | > 100 µM |  | > 100 µM | 4.35 µM | 11.9 µM | 16.1 µM |  |  |  |  |  |  |  |  |  | 
COc1ccc(-c2cc(=O)c3cc4c(cc3[nH]2)OCO4)cc1OC |  | > 100 µM | > 100 µM | > 100 µM |  | > 100 µM | > 100 µM | > 100 µM | > 100 µM | > 100 µM | > 100 µM |  |  |  |  |  |  |  |  | 
[N-]=[N+]=C1N=CN=C1c1ncn[nH]1 |  | > 100 µM | > 100 µM | > 100 µM | > 100 µM | 37.1 µM |  | 52.2 µM | > 100 µM | > 100 µM | > 100 µM |  |  |  |  |  |  |  |  | 
CCOC(=O)C1(C/C=C(/C)Cl)CCCC1=O (stereo unspecified) |  |  | > 100 µM | > 100 µM |  | > 100 µM | > 100 µM | > 100 µM | > 100 µM | > 100 µM | > 100 µM |  |  |  |  |  |  |  |  | 
N#CC1=C(N)n2c(s/c(=C\c3ccc(Cl)cc3)c2=O)=C(c2nc3ccccc3[nH]2)C1c1ccc(Cl)cc1 (stereo unspecified) |  | 1.7 µM | 9.71 µM | 11.5 µM |  | 3.86 µM | 7.11 µM | 3.56 µM | 17.8 µM | 2.89 µM |  |  |  |  |  |  |  |  |  | 
O=C(Nc1cccc(-n2ccc3c(NC(=O)c4ccccc4)nccc32)c1)Nc1cc(C(F)(F)F)cc(C(F)(F)F)c1 |  | > 50 µM | > 50 µM | 2.56 µM |  | 36 µM | > 50 µM | 4.76 µM | 3.89 µM | 7.68 µM | 3.17 µM | 2.1 µM | 2.46 µM | 1.11 µM | 1.92 µM | 1.16 µM | 2.71 µM | 1.39 µM | 1.09 µM | 1.63 µM
N[C@H](C(=O)O)[C@H]1ON=C(Cl)[C@@H]1O |  | > 173 µM | > 309 µM | > 66.9 µM |  | 68 µM | > 550 µM | > 362 µM | > 364 µM | > 550 µM | > 93.8 µM and 232 µM | 5.62 µM | 7.86 µM |  | 2.48 µM | 7.92 µM | 5.1 µM | 8.83 µM |  | 11.4 µM
Cc1cccc2c(=O)c([Se]c3coc4c(C)cccc4c3=O)coc12 |  | 44.8 µM | 26.5 µM | 30.3 µM |  | > 100 µM | 36.8 µM | 29.9 µM | 31.3 µM | 23.8 µM | 32.2 µM |  |  |  |  |  |  |  |  | 
CN(C)c1ccc(C(=C(c2ccc(N(C)C)cc2)c2ccc(N(C)C)cc2)c2ccc(N(C)C)cc2)cc1 |  | 35.3 µM | 34 µM | 22 µM |  | 41 µM | 56.4 µM | 28 µM | 27.8 µM | 28.1 µM | 25.2 µM |  |  |  |  |  |  |  |  | 
